Results from patent US11787796B2, “Plasma Kallikrein inhibitors and uses thereof” (Takeda Pharmaceutical Company Limited, priority 2019, dated 2023).

biological target: human activated kallikrein enzyme (Homo sapiens (Human), UniProt P03952); assay: Plasma kallikrein inhibition assay with fluorogenic peptide substrate, 500 pM activated kallikrein format; format: biochemical; conditions: 500 pM activated kallikrein; 300 uM Pro-Phe-Arg-7-amido-4-methylcoumarin substrate; 30 min preincubation, 10 min reaction at RT; read-out: Primary Dose Response Assay: Average EC50
Description: Example compounds were evaluated for inhibition of the human activated kallikrein enzyme in two formats of an assay employing a fluorogenic peptide substrate. In one assay format, the concentrations of reagents were as follows: 20 mM Tris pH 7.5, 1 mM EDTA, 150 mM sodium chloride, 0.1% PEG-400, 0.1% Triton X-100, […], 300 uM Pro-Phe-Arg-7-amido-4-methylcoumarin substrate. Prior to reaction initiation with substrate, enzyme and inhibitors were preincubated for 30 min at RT. After initiation with substrate, reactions were incubated for 10 min at RT and fluorescence emission at 460 nm from 380 nm excitation measured with a microplate reader. In another assay format, the concentrations of reagents were as follows: 20 mM Tris pH 7.5, 1 mM EDTA, 150 mM sodium chloride, 0.1% PEG-400, 0.1% Triton X-100, 5 pM activated kallikrein enzyme, 300 uM Pro-Phe-Arg-7-amido-4-methylcoumarin substrate. Prior to reaction initiation with substrate, enzyme and inhibitors were preincubated for 30 min at RT. After initiation with substrate, reactions were incubated for 18 h at RT and fluorescence emission at 460 nm from 380 nm excitation measured with a microplate reader.
Table II provides the results of the assay in the format with 500 pM activated kallikrein assay.
Table III provides comparative plasma kallikrein inhibition potency in the assay format with 500 pM activated kallikrein assay (described in detail in the preceding example).

Sequence of human activated kallikrein enzyme (P03952 391-638): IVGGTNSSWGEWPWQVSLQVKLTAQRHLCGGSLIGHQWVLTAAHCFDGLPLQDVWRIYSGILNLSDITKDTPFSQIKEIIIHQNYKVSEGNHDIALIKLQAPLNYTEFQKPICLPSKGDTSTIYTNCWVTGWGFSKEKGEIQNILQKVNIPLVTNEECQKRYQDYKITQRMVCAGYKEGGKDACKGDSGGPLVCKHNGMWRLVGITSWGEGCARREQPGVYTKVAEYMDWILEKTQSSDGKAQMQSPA
Sequence of human activated kallikrein enzyme (P03952 20-390 partner): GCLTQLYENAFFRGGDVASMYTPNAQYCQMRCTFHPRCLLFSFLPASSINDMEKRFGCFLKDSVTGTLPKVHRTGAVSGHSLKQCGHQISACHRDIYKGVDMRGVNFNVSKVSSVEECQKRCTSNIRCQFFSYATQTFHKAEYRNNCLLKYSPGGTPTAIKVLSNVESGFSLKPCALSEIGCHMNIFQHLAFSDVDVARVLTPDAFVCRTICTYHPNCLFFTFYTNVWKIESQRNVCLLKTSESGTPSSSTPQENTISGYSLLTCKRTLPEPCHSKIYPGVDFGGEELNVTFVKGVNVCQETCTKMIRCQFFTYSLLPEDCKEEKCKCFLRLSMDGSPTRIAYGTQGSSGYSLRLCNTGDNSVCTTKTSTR

EC50 [nM]	SMILES
≤ 1	Cc1cc(N)nc(C)c1CNC(=O)c1cn(Cc2cn3cc(C4CC4)ccc3n2)nn1 [Example I-26, N-((6-amino-2,4-dimethylpyridin-3-yl)methyl)-1-((6-cyclopropylimidazo[1,2-a]pyridin-2-yl)methyl)-1H-1,2,3-triazole-4-carboxamide]
≤ 1	COc1ccc(-n2cnnn2)c(CNC(=O)c2cn(Cc3cn4cc(C5CC5)cc(C(O)C5COC5)c4n3)nn2)c1F (stereo not drawn) [Example I-27, 1-((6-cyclopropyl-8-(hydroxy(oxetan-3-yl)methyl)imidazo[1,2-a]pyridin-2-yl)methyl)-N-(2-fluoro-3-methoxy-6-(1H-tetrazol-1-yl)benzyl)-1H-1,2,3-triazole-4-carboxamide]
1 to 10	COc1ccc(-n2cnnn2)c(CNCc2cn(Cc3cn4cc(C5CC5)ccc4n3)nn2)c1F [Example I-29, 1-(1-((6-cyclopropylimidazo[1,2-a]pyridin-2-yl)methyl)-1H-1,2,3-triazol-4-yl)-N-(2-fluoro-3-methoxy-6-(1H-tetrazol-1-yl)benzyl)methanamine]
100 to 2000	O=S(=O)(NCc1c(-n2cnnn2)ccc(Cl)c1F)c1cn(Cc2cn3cc(C4CC4)ccc3n2)nn1 [Example I-30, N-(3-chloro-2-fluoro-6-(1H-tetrazol-1-yl)benzyl)-1-((6-cyclopropylimidazo[1,2-a]pyridin-2-yl)methyl)-1H-1,2,3-triazole-4-sulfonamide]
1 to 10	COc1ccc(-n2cnnn2)c(C(C)NC(=O)c2cn(Cc3cn4cc(C5CC5)ccc4n3)nn2)c1F (stereo not drawn) [Example I-31, 1-((6-cyclopropylimidazo[1,2-a]pyridin-2-yl)methyl)-N-(1-(2-fluoro-3-methoxy-6-(1H-tetrazol-1-yl)phenyl)ethyl)-1H-1,2,3-triazole-4-carboxamide]
1 to 10	N=C(N)c1ccc(CNS(=O)(=O)c2cnn(Cc3cn4cc(C5CC5)ccc4n3)c2)cc1 [Example I-32, 4-(((1-((6-cyclopropylimidazo[1,2-a]pyridin-2-yl)methyl)-1H-pyrazole)-4-sulfonamido)methyl)benzimidamide]
2000 to 7100	NCc1ccc(CNS(=O)(=O)c2cnn(Cc3cn4cc(C5CC5)ccc4n3)c2)cc1 [Example I-33, N-(4-(aminomethyl)benzyl)-1-((6-cyclopropylimidazo[1,2-a]pyridin-2-yl)methyl)-1H-pyrazole-4-sulfonamide]
> 7100	N#Cc1ccc(CNS(=O)(=O)c2cnn(Cc3cn4cc(C5CC5)ccc4n3)c2)cc1 [Example I-34, N-(4-cyanobenzyl)-1-((6-cyclopropylimidazo[1,2-a]pyridin-2-yl)methyl)-1H-pyrazole-4-sulfonamide]
> 7100	O=S(=O)(NCCOc1ccccc1)c1cnn(Cc2cn3cc(C4CC4)ccc3n2)c1 [Example I-36, 1-((6-cyclopropylimidazo[1,2-a]pyridin-2-yl)methyl)-N-(2-phenoxyethyl)-1H-pyrazole-4-sulfonamide]
> 7100	CC(NS(=O)(=O)c1cnn(Cc2cn3cc(C4CC4)ccc3n2)c1)c1ccc(Cl)cc1 (stereo not drawn) [Example I-37]
> 7100	CC(NS(=O)(=O)c1cnn(Cc2cn3cc(C4CC4)ccc3n2)c1)c1cccc(Cl)c1 (stereo not drawn) [Example I-38, N-(1-(3-chlorophenyl)ethyl)-1-((6-cyclopropylimidazo[1,2-a]pyridin-2-yl)methyl)-1H-pyrazole-4-sulfonamide]
10 to 100	Cc1cc(C(=N)N)cc(C)c1CNS(=O)(=O)c1cnn(Cc2cn3cc(C4CC4)ccc3n2)c1 [Example I-39, 4-(((1-((6-cyclopropylimidazo[1,2-a]pyridin-2-yl)methyl)-1H-pyrazole)-4-sulfonamido)methyl)-3,5-dimethylbenzimidamide]
10 to 100	COc1ccc(-n2cnnn2)c(CNS(=O)(=O)c2cn(Cc3cn4cc(C5CC5)ccc4n3)nn2)c1F [Example I-40, 1-((6-cyclopropylimidazo[1,2-a]pyridin-2-yl)methyl)-N-(2-fluoro-3-methoxy-6-(1H-tetrazol-1-yl)benzyl)-1H-1,2,3-triazole-4-sulfonamide]
2000 to 7100	Cc1cc(CN)cc(C)c1CNS(=O)(=O)c1cnn(Cc2cn3cc(C4CC4)ccc3n2)c1 [Example I-41, N-(4-(aminomethyl)-2,6-dimethylbenzyl)-1-((6-cyclopropylimidazo[1,2-a]pyridin-2-yl)methyl)-1H-pyrazole-4-sulfonamide]
> 7100	O=S(=O)(NCc1ccc(Cl)cc1)c1cnn(Cc2cn3cc(C4CC4)ccc3n2)c1 [Example I-42, N-(4-chlorobenzyl)-1-((6-cyclopropylimidazo[1,2-a]pyridin-2-yl)methyl)-1H-pyrazole-4-sulfonamide]
> 7100	Cc1cc(C#N)cc(C)c1CNS(=O)(=O)c1cnn(Cc2cn3cc(C4CC4)ccc3n2)c1 [Example I-43, N-(4-cyano-2,6-dimethylbenzyl)-1-((6-cyclopropylimidazo[1,2-a]pyridin-2-yl)methyl)-1H-pyrazole-4-sulfonamide]
1 to 10	COc1ccc(-n2cnnn2)c(CNS(=O)(=O)c2cnn(Cc3cn4cc(C5CC5)ccc4n3)c2)c1F [Example I-45, 1-((6-cyclopropylimidazo[1,2-a]pyridin-2-yl)methyl)-N-(2-fluoro-3-methoxy-6-(1H-tetrazol-1-yl)benzyl)-1H-pyrazole-4-sulfonamide]
100 to 2000	Cc1cc(N)nc(C)c1CNS(=O)(=O)c1cnn(Cc2cn3cc(C4CC4)ccc3n2)c1 [Example I-46, N-((6-amino-2,4-dimethylpyridin-3-yl)methyl)-1-((6-cyclopropylimidazo[1,2-a]pyridin-2-yl)methyl)-1H-pyrazole-4-sulfonamide]
> 7100	O=S(=O)(NCc1cccc(Cl)c1)c1cnn(Cc2cn3cc(C4CC4)ccc3n2)c1 [Example I-47, N-(3-chlorobenzyl)-1-((6-cyclopropylimidazo[1,2-a]pyridin-2-yl)methyl)-1H-pyrazole-4-sulfonamide]
1 to 10	COc1ccc(S(=O)(=O)N2CCOCC2)c(CNC(=O)c2cn(Cc3cn4cc(C5CC5)ccc4n3)nn2)c1F [Example I-48, 1-((6-cyclopropylimidazo[1,2-a]pyridin-2-yl)methyl)-N-(2-fluoro-3-methoxy-6-(morpholinosulfonyl)benzyl)-1H-1,2,3-triazole-4-carboxamide]
10 to 100	COc1ccc(-c2c[nH]nn2)c(CNC(=O)c2cn(Cc3cn4cc(C5CC5)ccc4n3)nn2)c1F [Example I-49, 1-((6-cyclopropylimidazo[1,2-a]pyridin-2-yl)methyl)-N-(2-fluor-3-methoxy-6-(1H-1,2,3-triazol-4-yl)benzyl)-1H-1,2,3-triazole-4-carboxamide]
> 7100	COc1ccc(-c2c[nH]nn2)c(CNC(=O)c2cn(Cc3cn4cc(C5CC5)ccc4n3)nn2)c1F [Example I-50]

SMILES	EC50 [nM]
O=S(=O)(NCCc1ccc(Cl)cc1)c1cnn(Cc2cn3cc(C4CC4)ccc3n2)c1 [Example I-35, N-(4-chlorophenethyl)-1-((6-cyclopropylimidazo[1,2-a]pyridin-2-yl)methyl)-1H-pyrazole-4-sulfonamide]	> 7100
O=S(=O)(NCCc1cccc(Cl)c1)c1cnn(Cc2cn3cc(C4CC4)ccc3n2)c1 [Example I-44, N-(3-chlorophenethyl)-1-((6-cyclopropylimidazo[1,2-a]pyridin-2-yl)methyl)-1H-pyrazole-4-sulfonamide]	> 7100
